Consider seven molecules from patent US6664235B1, “Medicaments comprising sialic acid derivatives as active ingredients” (priority 1999, dated 2003).

Each structure is given as a SMILES string. Like-named read-outs stand apart in the source and are kept apart here.

The test system of data set [1] is sialidase of influenza virus A/Singapore/1/57 (H2N2). In kind it is biochemical, human isolate. To be noted: read-out: Inhibitory activity (IC50, μM) 4-MU-Neu5Ac as substrate.
Data set [2] relates to sialidase of influenza virus A/Aichi/2/68 (H3N2). Format: biochemical, human isolate.
Data set [3] relates to sialidase of influenza virus A/duck/36/4/76 (H1N1). In kind it is biochemical, avian isolate. Conditions: read-out: Inhibitory activity (IC50, μM) 4-MU-Neu5Ac as substrate.
Data set [4] deals with sialidase of influenza virus A/duck/849/3/80 (H4N1). In kind it is biochemical, avian isolate.
Data set [5] deals with sialidase of influenza virus A/duck/13/2/76 (H6N1). Format: biochemical, avian isolate.
Data set [6] has as its system sialidase of influenza virus A/duck/33/3/76 (H10N1). In kind it is biochemical, avian isolate.
Data set [7] relates to sialidase of influenza virus A/duck/273/8/78 (H2N2). Format: biochemical, avian isolate.
Data set [8] concerns sialidase of influenza virus A/duck/24/5/76 (H3N2). Format: biochemical, avian isolate.
Data set [9] relates to sialidase of influenza virus A/duck/47/5/76 (H7N2). Format: biochemical, avian isolate.
Data set [10] deals with sialidase of influenza virus A/duck/86/1/76 (H9N2). In kind it is biochemical, avian isolate.
Data set [11] concerns sialidase of influenza virus A/duck/44/3/76 (H11N3). In kind it is biochemical, avian isolate.
For data set [12], the system named is sialidase of influenza virus A/duck/862/5/80 (H12N5). Format: biochemical, avian isolate.
Data set [13] concerns sialidase of influenza virus A/swine/Hokkaido/2/81 (H1N1). Format: biochemical, swine isolate. Conditions: read-out: Inhibitory activity (IC50, μM) Neu5Ac-DSPE as substrate.
The test system of data set [14] is sialidase of influenza virus A/swine/Italy/309/83 (H3N2). Format: biochemical, swine isolate.
In data set [15] the test system is influenza virus A/PR/8/34 (H1N1) hemagglutinin. The data set can be described thus: Hemagglutination inhibitory assay with human erythrocytes. To be noted: lowest concentration that completely inhibited agglutination; viruses 2^4 HA units, 4° C., 1 hour. Format: cell-based.
Data set [16] relates to influenza virus A/Aichi/2/68 (H3N2) strain. Description: Inhibition of infection of influenza virus to MDCK cells (LDH release, cytopathic effect). Format: cell-based. Conditions: LDH released from infected cells.
Data set [17] has the same test system. Format: cell-based. To be noted: read-out: IC50, early stage of infection.
Data set [18] shares this test system. Format: cell-based. Conditions: read-out: IC50 of prevention of cytopathic effects, late stage.
Data set [19] has as its target sialidase of influenza virus A/PR/8/34 (H1N1) (Influenza A virus, UniProt P03468).
Data set [20] has as its target Clostridium perfringens sialidase (Clostridium perfringens, UniProt A0A0H2YQR1). In kind it is biochemical.
Data set [21] in a line: Test of resistance to acid hydrolysis (1H NMR). To be noted: for half-life: 1.0 N D2SO4/D2O, pH 1.37.
For data set [22], the system named is influenza virus A/Aichi/2/68 (H3N2). Format: binding.
[23] abbreviates: read-out: Inhibitory activity (IC50, μM) 4-MU-Neu5Ac as substrate.
Setting [24] is: read-out: Inhibitory activity (IC50, μM) Neu5Ac-DSPE as substrate.

`CCCCCCCCCCCCCCCCCC(=O)CC(COC(=O)CCCCCCCCCCCCCCCCC)COP(=O)(O)OCCNCCOC1(C(=O)O)OC(C(O)C(O)CO)C(NC(C)=O)C(O)C1F` (centres unmarked) [Compound 9]: the IC50 in data set [1] amounted to 15.6 µM; in data set [2] (setting [23]) it was 31.3 µM; in [2] (setting [24]), 31.3 µM; in [3], 125 µM; in [4] (setting [23]), 125 µM; in data set [4] (setting [24]), 125 µM. Also, the IC50 turned out to be 150 µM in data set [5] (setting [23]); 180 µM in [5] (setting [24]); 500 µM in data set [6] (setting [23]); 250 µM in data set [6] (setting [24]); 150 µM in data set [7] (setting [23]); 125 µM in data set [7] (setting [24]). The IC50 in [8] (setting [23]) worked out at 180 µM; in data set [8] (setting [24]) it was 100 µM; in data set [9] (setting [23]), 200 µM; in [9] (setting [24]), 150 µM; in data set [10] (setting [23]) it was 180 µM; in [10] (setting [24]), 125 µM. Also, the IC50 in data set [11] (setting [23]) amounted to 250 µM; in data set [11] (setting [24]), 75 µM; in data set [12] (setting [23]) it was 125 µM; in data set [12] (setting [24]), 100 µM; in data set [13] it was 125 µM; in [14] (setting [23]) it was 125 µM. Also, the half-maximal inhibitory concentration (IC50) is 150 µM in data set [14] (setting [24]); 5.6 µM in data set [16]; 14 µM in data set [17]; approximately 40 µM in data set [18]; 31.3 µM in data set [19] (setting [24]). In addition, the “virus sialidase activity inhibition” value in [2] and in data set [19] was “completely inhibited” each time. Further, in [15], the “HAI (M) H1N1” value worked out at 0.001 M.
Take `CC(=O)NC1C(O)C(O)C(Oc2ccc([N+](=O)[O-])cc2)(C(=O)O)OC1C(O)C(O)CO` (centres unmarked) [Compound 3]: the “Ki (M) NA (C. perfringens)” value in data set [20] is given as “Very weak”. For the same molecule, the half-life in data set [21] is 23 h.
As to `CCCCCCCCCCCCCCCCCC(=O)CC(COC(=O)CCCCCCCCCCCCCCCCC)COP(=O)(O)OCCNCCOC1(C(=O)O)OC(C(O)C(O)CO)C(NC(C)=O)C(O)C1O` (centres unmarked) [Compound 7], the “affinity to H3 type virus HA relative to Compound 6” value in [22] was determined as 144%. In addition, in [15], the “HAI (M) H1N1” value worked out at 0.001 M.
Consider `CCCCCCCCCCCCCCCCCC(=O)CC(COC(=O)CCCCCCCCCCCCCCCCC)COP(=O)(O)OCCNCCOC1(C(=O)O)CC(O)C(NC(C)=O)C(C(O)C(O)CO)O1` (centres unmarked) [Compound 6], for which the “Binding assay (%) H3N2” value in [22] turned out to be 25%. For the same molecule, the “HAI (M) H1N1” value in data set [15] stood at 0.001 M.
For the molecule `CCCCCCCCCCCCCCCCCC(=O)CC(COC(=O)CCCCCCCCCCCCCCCCC)COP(=O)(O)OCCNCCOC1(C(=O)O)OC(C(O)C(O)CO)C(NC(C)=O)C(O)C1O` (centres unmarked) [Compound 8], the “HAI (M) H1N1” value in [15] is more than 0.001 M.
In the case of `CC(=O)NC1C(O)CC(Oc2ccc([N+](=O)[O-])cc2)(C(=O)O)OC1C(O)C(O)CO` (centres unmarked) [Compound 2], the “Hydrolysis T½ (hour) 1N sulfuric acid 50° C.” value in [21] (1N sulfuric acid, 50° C.) was determined as 0.15 h.
Turning to `CC(=O)NC1C(O)C(F)C(Oc2ccc([N+](=O)[O-])cc2)(C(=O)O)OC1C(O)C(O)CO` (centres unmarked) [Compound 5], the half-life in data set [21] was 48 h.
